Assay [1] relates to mast cells. The assay is described as follows: Inhibition of mast cells. The format is cell-based. The conditions noted are these: Mast cell.
Assay [2] relates to brain blood vessel leakage. The assay is described as follows: Evans blue extravasation (brain blood vessel leakage) in mice. The format is in vivo. As to the method: Male BALB/6 mice (6 weeks old, Jackson Laboratories, Bar Harbor, ME) were injected in their tail vein with 0.2 ml of Evans blue (0.4%). Binding of Evans blue to the albumin found in the blood prevents Evans blue from escaping the circulation and constitutes a good marker from extravasation in brain parenchyma.
Brain blood vessel leakage was assessed with Evans blue extravasation at 2 hr following Evans blue and 30 min after intraperitoneal injection of NT. Mice were anesthetized with a single intraperitoneal injection of ketamine/xylazine ([…]), an intracardiac catheter was inserted in the left ventricle, blood was withdrawn, and 10 ml normal saline was administered intracardially to wash any Evans blue from the systemic circulation. The mice were then decapitated and the whole brain was removed. For brain extravasated Evans blue measurements, the brains were first weighed and the Evans blue was then extracted in 1 ml of N,N-dimethylformamide overnight at 55 °C and the optical density was measured at 620 nm using a PerkinElmer Luminescence Spectrophotometer (Perkin Elmer, Norwalk, CT). EB concentration was calculated using a standard curve and values were normalized to the tissue weight and expressed as arbitrary units/mg of tissue. Five animals per group were estimated to be sufficient for significant differences given the variability (<50%) observed. Results of Evans blue/mg tissue were expressed as mean ± SD of percent change from control. This statistical analysis was chosen because it permits the experimental results to be compared to their own control and avoids variability from experiment to experiment. Values were then compared using the non-parametric Mann-Whitney U test. Significance is denoted by p<0.05. In order to induce brain blood vessel leakage, the mice were either treated only with an intraperitoneal injection (0.5 ml) of NT (500 nmol/kg body weight) or first pretreated with the flavonoid luteolin (40 mg/kg body weight) mixed in olive kernel extract to permit solubilization and increased absorption of the lipid-soluble luteolin. The mice not treated with luteolin were pretreated the same way only with the vehicle in order to keep the conditions similar [olive kernel extract, obtained from Minerva Edible Oils, Athens, Greece (http://www.minerva.com.gr/)]. […] When the mice were treated with both IL-33 (1 microg/mouse) and NT, brain leakage was even greater (Fig. 3); IL-33 alone had no effect. Pretreatment with the same amount of luteolin as before inhibited brain blood vessel leakage by 50% (Fig. 3). Using more luteolin could inhibit the synergistic effect of IL-33 and NT.

Broadly, the inhibition is the change of the read-out against control, counted positive when it falls. Higher therefore signals a response far below the control. In assay [1], `O=c1c(O)c(-c2ccc(O)c(O)c2)oc2cc(O)cc(O)c12` [Quercetin] showed an inhibition at 10 µM of 80%.
Take `O=c1cc(-c2ccc(O)c(O)c2)oc2cc(O)cc(O)c12` [luteolin]: the “inhibition of brain blood vessel leakage” value in assay [2] (Figure 3 legend, intraperitoneal luteolin 10 min prior to injection of IL-33 plus NT) was “inhibited”; in assay [2] (NT-induced leakage, pretreatment with luteolin 40 mg/kg body weight mixed in olive kernel extract), “completely inhibited”; in assay [2] (leakage induced by IL-33 (1 microg/mouse) and NT, pretreatment with luteolin 40 mg/kg body weight), 50%.
Consider neurotensin [NT], for which, in assay [2] (intraperitoneal injection of NT 500 nmol/kg body weight, Evans blue extravasation 30 min after NT, percent change from control), the “increase in brain blood vessel leakage” value stood at 150%.

Values taken from patent EP2710893A1, “Methods of treating autism spectrum disorders and compositions for same” (Theta Biomedical Consulting&development Co., Inc, priority 2009, dated 2011).
